Laboratory results: patent publication US20120115951A1, “PROTECTIVE ACTION OF SEROFENDIC ACID ON CARDIAC MUSCLE” (Eisai R & D Managment Co., Ltd, priority 2005, published 2012)

Key:
[1] = system: neonatal rat cardiac myocytes; assay: Time-lapse confocal analysis of intracellular ROS production (DCF fluorescence); type: cell-based; conditions: 100 μM SFA pretreatment; H2O2 for 30 min (50 μM, 100 μM elsewhere in the source)
Procedure: (§1) To monitor ΔΨm, cells were loaded with 100 nM tetramethylrhodamine ethyl ester (TMRE) (Molecular Probes) at 37° C. for 20 minutes. To monitor [Ca^2+]m, the cells were loaded with 2 μM […] (Molecular Probes) at 37° C. for 30 minutes. We assayed intracellular ROS production using chloromethyl-2,7-dichlorodihydrofluorescein diacetate (DCF) (Molecular Probes). Cells were loaded with 4 μM DCF at 37° C. for 30 minutes, and formation of the oxidized derivative was monitored by the increase of green fluorescence.
Cells plated on 35 mm glass-bottom dishes were maintained at 37° C. in the presence of 5% CO2 using a heater platform installed on a microscope stage, and were placed in serum-free DMEM. After the desired temperature was reached, time-lapse confocal microscopy was started with 2 minute intervals, using a 20× objective lens. Images were taken with laser scanning confocal microscopy (Zeiss, LSM510). […]
(§2) Twenty-five cells were randomly selected in each scan, and the red or green fluorescence intensity was sequentially monitored.
ROS is one of the most important inducers of MPTP opening. To investigate whether the suppression of ROS production is associated with the protective effects of SFA, the present inventors assessed the change of DCF fluorescence by 50 μM H2O2 stimulation in each group using time-lapse confocal microscopy (FIG. 4). […]

[2] = Blood pressure measurement after femoral vein administration; type: in vivo, Sprague-Dawley male rats; conditions: 10 mg/kg into femoral vein; monitored until 10 minutes after administration; anesthetized rats
Procedure: The distal end of the common carotid artery of 8-week-old Sprague-Dawley male rats (about 250 g) was ligated under the effect of pentobarbital anesthetic. Then, to the proximate end thereof, a polyethylene tube filled with heparin-containing saline and connected to a pressure converter was inserted. Changes in blood pressure were recorded by a pen recorder.
A 24-gauge injection needle connected to a syringe via the tube was inserted into the femoral vein, and the liquid drug was injected over 1 to 2 minutes. The blood pressure was monitored from before the liquid drug administration until 10 minutes after the administration.
Serofendic acid was dissolved in Meylon (7% NaHCO3) at a concentration of 4 mg/mL. The blood pressure of each individual rat was measured after only the solvent was administered. Then, 10 mg/kg of serofendic acid was administered. The average of the blood pressure for 3 minutes before the administration of each of SFA and Meylon was set as 100%.

[3] = system: neonatal rat cardiac myocytes; assay: Time-lapse confocal analysis of ΔΨm loss (TMRE fluorescence); type: cell-based
Procedure: as §1
Cells plated on 35 mm glass-bottom dishes were maintained at 37° C. in the presence of 5% CO2 using a heater platform installed on a microscope stage, and were placed in serum-free DMEM. After the desired temperature was reached, time-lapse confocal microscopy was started with 2 minute intervals, using a 20× objective lens. Images were taken with laser scanning confocal microscopy (Zeiss, LSM510). TMRE and rhod-2 AM were excited at 543 nm using a helium/neon laser. DCF was excited at 488 nm using an argon laser.
as §2
To further confirm the protective effect of SFA in preventing the loss of ΔΨm, the present inventors examined the time-dependent changes of ΔΨm on a single-cell basis (FIG. 3). Time-lapse confocal analysis of cardiac myocytes loaded with TMRE was performed at 2-minute intervals. Time-lapse scanning began immediately after the application of 50 μM H2O2.
C=Control cells; H=Cells exposed to 100 μM H2O2 for 1 hour; SFA=Cells pretreated with 100 μM SFA followed by 100 μM H2O2 for 1 hour. Scale bars at 0 min frames: 20 μm.

[4] = system: neonatal rat cardiac myocytes; assay: MTS assay of cell viability after H2O2; type: cell-based; conditions: 100 μM SFA; H2O2 treatment 3 hours; P<0.01 vs H group
Procedure: Cardiac ventricular myocytes were prepared from 1-2-day-old Wister rats and cultured as previously described (Akao M, et al., Circ Res. 2001; 88:1267-75). In brief, the hearts were removed, and the ventricles were minced into small fragments, which were digested by trypsin dissociation. The dissociated cells were preplated for 1 hour to enrich the culture with myocytes. The non-adherent myocytes were then plated in plating medium consisting of Dulbecco's Modified Eagle Medium (DMEM) (Nacalai tesque; Kyoto, Japan) supplemented with 5% fetal calf serum, penicillin (100 U/ml), streptomycin ([…]), and 2 μg/ml vitamin B12. The final myocyte cultures contained >90% cardiac myocytes. The cells were maintained at 37° C. in the presence of 5% CO2 in a humidified incubator. […]
Cell viability was quantified based on metabolic activity using the MTS assay (Promega; Madison, Wis.). […] The quantity of formazan product is directly proportional to the number of living cells in culture (Zhang H M, et al., Circ Res. 2002; 90:1251-8).
The cultures were incubated in serum-free medium containing 20 μl/well of the MTS tetrazolium compound for 3 hours at 37° C. The absorbance of formazan products was photometrically measured at 490 nm with a microplate reader, ARVOsx (PerkinElmer; Shelton, Wash.). Cell viability was expressed as the percentage of the absorbance measured in the control group. […]

[5] = system: cultured cortical and striatal neurons; conditions: in vitro; cited from earlier work
[6] = electron spin resonance analysis; cited from earlier work
[7] = system: neonatal rat cardiac myocytes; assay: Time-lapse confocal analysis of [Ca2+]m (rhod-2 fluorescence); type: cell-based; conditions: 100 μM SFA pretreatment; H2O2 for 1 hour (50 μM, 100 μM elsewhere in the source)
Procedure: as §1
Cells plated on 35 mm glass-bottom dishes were maintained at 37° C. in the presence of 5% CO2 using a heater platform installed on a microscope stage, and were placed in serum-free DMEM. After the desired temperature was reached, time-lapse confocal microscopy was started with 2 minute intervals, using a 20× objective lens. […]
as §2
Calcium overload in mitochondrial matrix is one of the critical triggers of cell death and is also an important inducer of MPTP opening. To monitor the [Ca^2+]m level, the present inventors performed time-lapse confocal microscopy using the [Ca^2+]m sensitive dye, rhod-2, and observed the change of fluorescence due to 50 μM H2O2 stimulation in each group (FIG. 5). […]

[8] = system: neonatal rat cardiac myocytes; assay: FACS analysis of ΔΨm in TMRE-loaded cells; type: cell-based; conditions: for protection against ΔΨm loss in the presence of mitoKATP channel blocker 5HD: 100 μM drug plus 500 μM 5HD
Procedure: (§3) Cardiac ventricular myocytes were prepared from 1-2-day-old Wister rats and cultured as previously described (Akao M, et al., Circ Res. 2001; 88:1267-75). In brief, the hearts were removed, and the ventricles were minced into small fragments, which were digested by trypsin dissociation. The dissociated cells were preplated for 1 hour to enrich the culture with myocytes. The non-adherent myocytes were then plated in plating medium consisting of Dulbecco's Modified Eagle Medium (DMEM) (Nacalai tesque; Kyoto, Japan) supplemented with 5% fetal calf serum, penicillin (100 U/ml), streptomycin ([…]), and 2 μg/ml vitamin B12. The final myocyte cultures contained >90% cardiac myocytes. The cells were maintained at 37° C. in the presence of 5% CO2 in a humidified incubator. Bromodeoxyuridine (0.1 mM) was incubated in the medium for the first 3 days after plating to inhibit fibroblast growth. Cultures were then placed in serum-free DMEM containing vitamin B12 and transferrin, 24 hours prior to the drug treatment.
as §1
For FACS analysis of ΔΨm, TMRE-loaded cells were harvested by trypsinization at the end of the experimental protocols, and analyzed using FACSAria (BD Biosciences; San Jose, Calif.) (20,000 cells/sample). The fluorescence intensity of TMRE was monitored at 582 nm (FL-2). The FACS data were analyzed using analysis software (WinMDI; http://facs/scripps.edu/software.html).
C=Control cells; H=Cells exposed to 100 μM H2O2 for 1 hour; SFA=Cells pretreated with 100 μM SFA followed by 100 μM H2O2 for 1 hour. In all histograms, the position of the major population of cells in the control group is indicated by a vertical dashed line. […] Cells were pretreated with various concentrations of SFA followed by 100 μM H2O2 for 1 hour. C=Control cells. SFA preserved ΔΨm in a concentration-dependent manner
FIG. 2c and FIG. 2d show the summarized data of the percentage of cells that maintain high (>200) TMRE fluorescence. The cells were pre-treated with various drugs shown in the figure and then treated with 100 μM H2O2 for 1 hour. DZ=100 μM diazoxide; 5HD=500 μM 5-hydroxydecanoate.

[9] = system: neonatal rat cardiac myocytes; assay: TUNEL staining and DAPI staining of neonatal rat cardiac myocytes exposed to H2O2; type: cell-based
Procedure: as §3, with “Cultures were then placed in serum-free DMEM containing vitamin B12 and transferrin, 24 hours prior to the drug treatment.” left out
TUNEL staining was performed according to the manufacturer's protocol (Roche; Indianapolis, Ind.). Fluorescein labels incorporated in nucleotide polymers were detected with a fluorescence microscope (Axioskop 2 plus, Zeiss; Thornwood, N.Y.).
Cells were stained with the DNA binding dye DAPI (5 μM, Molecular Probes; Eugene, Oreg.). The nuclear morphology of cells were visualized and photographed with the fluorescence microscope. […]

[10] = system: isolated cardiac myocytes; conditions: previously reported (Akao et al. 2001); cited from earlier work
[11] = 25 randomly selected cells, 100 μM SFA, H2O2

## C[S+]([O-])CC1C2CCC3(CCC4C(C)(C(=O)O)CCCC4(C)C3C2)C1O (single isomer, unassigned; ent-15) [SFA, ent-15β-hydroxy-17-methylsulfinyl-16α-atisan-19-oic acid]
[1]
  DCF fluorescence (intracellular ROS): suppressed the increase in DCF fluorescence
[2]
  change in average blood pressure: no significant change in average blood pressure was observed
[3]; 100 μM SFA pretreatment, H2O2 (50 μM, 100 μM elsewhere in the source)
  TMRE fluorescence over 60 minutes (time-lapse): remarkably preserved
[3]; [11]
  number of cells undergoing the dissipation of ΔΨm: decreased the number of cells undergoing the dissipation of ΔΨm
  onset of ΔΨm loss: delayed the onset of ΔΨm loss
[4]
  cellular viability evaluated by MTS assay: partly but significantly protected against H2O2-induced cytotoxicity
[5]
  protection of neurons against glutamate, nitric oxide, and H2O2 cytotoxicity: exhibited the ability to protect cultured cortical and striatal neurons
[6]
  hydroxyl radical-scavenging activity: exhibits hydroxyl radical-scavenging activity
[7]
  rhod-2 fluorescence ([Ca2+]m overload): partly attenuated the [Ca^2+]m overload
[8]; 100 μM H2O2 for 1 hour
  concentration at which the ΔΨm-preserving effect reached its maximum level: 100 µM
[8]; 100 μM SFA vs 100 μM diazoxide, 100 μM H2O2 for 1 hour
  protective effect in preventing the loss of ΔΨm, versus diazoxide: comparable to 100 μM diazoxide
[8]; 100 μM diazoxide and 100 μM SFA vs SFA alone, 100 μM H2O2
  effect of co-application with diazoxide on ΔΨm preservation: did not exhibit an additive effect
[8]; 100 μM H2O2
  protection against ΔΨm loss in the presence of mitoKATP channel blocker 5HD: completely blocked
[8]; SFA alone in the absence of H2O2
  effect on control level of ΔΨm: did not affect the control level of ΔΨm
[8]; various concentrations of SFA followed by 100 μM H2O2 for 1 hour
  loss of ΔΨm (percentage of cells that maintain high (>200) TMRE fluorescence): prevented the loss of ΔΨm in a concentration-dependent manner
[9]; 100 μM SFA, 100 μM H2O2 for 16 hours
  nuclear morphology (DAPI staining): significant protective effect in the preservation of nuclear morphology
[9]; pretreated with 100 μM SFA followed by 100 μM H2O2 for 16 hours, compared with H2O2 group
  TUNEL-positive nuclei: obviously fewer TUNEL-positive nuclei

## CCCCCC(O)CCCC(=O)O (centres unmarked) [5HD, 5-hydroxydecanoate, reference compound]
[8]; 500 μM 5HD, 100 μM H2O2
  effect of 5HD alone on the loss of ΔΨm elicited by H2O2: did not aggravate the loss of ΔΨn

## CC1=NS(=O)(=O)c2cc(Cl)ccc2N1 [diazoxide, reference compound]
[10]
  loss of ΔΨm induced by oxidative stress: prevents the loss of ΔΨm induced by oxidative stress in a concentration-dependent manner
[8]; 100 μM H2O2
  protection against ΔΨm loss in the presence of mitoKATP channel blocker 5HD: completely blocked
